PubChem BioAssay AID1963846 (Molecular Pharmacology Branch, DTP, NCI, 2024)

Tested on: 454973-116-R2-J3-PDC complex spheroid viability
Assay: Anticancer human tumor 454973-116-R2-J3-PDC patient-derived pancreatic carcinoma cell line growth inhibition [POLQ]
Conditions: for IC50: curve of first compound; for viability, T/C: stronger effect = lower value
Summary of the method: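 PDC + HUVEC + MSC complex spheroids; POLQ inhibitors ± partner drugs; top conc. at/near clinical Cmax, else 10 microM (SN-38 1 microM), half-log dilutions; 37 degrees C, 5% CO2.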

[1] = second compound 0.0316 µM, first compound 0.0316 µM
[2] = second compound 0.0316 µM, first compound 0.1 µM
[3] = second compound 0.0316 µM, first compound 0.316 µM
[4] = second compound 0.0316 µM, first compound 1 µM
[5] = second compound 0.0316 µM, first compound 3.16 µM
[6] = second compound 0.0316 µM, first compound 10 µM
[7] = second compound 0.1 µM, first compound 0.0316 µM
[8] = second compound 0.1 µM, first compound 0.1 µM
[9] = second compound 0.1 µM, first compound 0.316 µM
[10] = second compound 0.1 µM, first compound 1 µM
[11] = second compound 0.1 µM, first compound 3.16 µM
[12] = second compound 0.1 µM, first compound 10 µM
[13] = second compound 0.316 µM, first compound 0.0316 µM
[14] = second compound 0.316 µM, first compound 0.1 µM
[15] = second compound 0.316 µM, first compound 0.316 µM
[16] = second compound 0.316 µM, first compound 1 µM
[17] = second compound 0.316 µM, first compound 3.16 µM
[18] = second compound 0.316 µM, first compound 10 µM
[19] = second compound 1 µM, first compound 0.0316 µM
[20] = second compound 1 µM, first compound 0.1 µM
[21] = second compound 1 µM, first compound 0.316 µM
[22] = second compound 1 µM, first compound 1 µM
[23] = second compound 1 µM, first compound 3.16 µM
[24] = second compound 1 µM, first compound 10 µM
[25] = second compound 3.16 µM, first compound 0.0316 µM
[26] = second compound 3.16 µM, first compound 0.1 µM
[27] = second compound 3.16 µM, first compound 0.316 µM
[28] = second compound 3.16 µM, first compound 1 µM
[29] = second compound 3.16 µM, first compound 3.16 µM
[30] = second compound 3.16 µM, first compound 10 µM
[31] = second compound 10 µM, first compound 0.0316 µM
[32] = second compound 10 µM, first compound 0.1 µM
[33] = second compound 10 µM, first compound 0.316 µM
[34] = second compound 10 µM, first compound 1 µM
[35] = second compound 10 µM, first compound 3.16 µM
[36] = second compound 10 µM, first compound 10 µM
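Further: spheroids exposed to drugs for seven days before measurement.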
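Wherever viability, T/C is given: percent viability relative to DMSO vehicle control wells taken as 100%.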

SMILES: CC1COCCN1c1cc(C2(O)CC3CCC(C2)O3)c2cnn(-c3ccn[nH]3)c2n1 (centres undefined) + Nc1ccc(C#CCN(C(=O)Cc2ncc(C(F)(F)F)cc2C(F)(F)F)c2ccc(F)cc2)nn1
- IC50 (second compound 0.0316 µM): 120 nM
- IC50 (second compound 0.1 µM): 114 nM
- IC50 (second compound 0.316 µM): 86.8 nM
- IC50 (second compound 1 µM): 95.2 nM
- IC50 (second compound 3.16 µM): 104 nM
- IC50 (second compound 10 µM): 108 nM
- viability, T/C [1]: 83.7%
- viability, T/C [2]: 55.6%
- viability, T/C [3]: 21%
- viability, T/C [4]: 12.5%
- viability, T/C [5]: 16.3%
- viability, T/C [6]: 10.3%
- viability, T/C [7]: 84.1%
- viability, T/C [8]: 54%
- viability, T/C [9]: 19.8%
- viability, T/C [10]: 12.3%
- viability, T/C [11]: 15.2%
- viability, T/C [12]: 13%
- viability, T/C [13]: 87.1%
- viability, T/C [14]: 44.8%
- viability, T/C [15]: 18.7%
- viability, T/C [16]: 11.5%
- viability, T/C [17]: 14.3%
- viability, T/C [18]: 11.2%
- viability, T/C [19]: 80.4%
- viability, T/C [20]: 48.6%
- viability, T/C [21]: 15.4%
- viability, T/C [22]: 11%
- viability, T/C [23]: 13.4%
- viability, T/C [24]: 11.7%
- viability, T/C [25]: 88.1%
- viability, T/C [26]: 51.1%
- viability, T/C [27]: 20.9%
- viability, T/C [28]: 10.7%
- viability, T/C [29]: 15.2%
- viability, T/C [30]: 10.3%
- viability, T/C [31]: 91.6%
- viability, T/C [32]: 52.4%
- viability, T/C [33]: 14.7%
- viability, T/C [34]: 9.37%
- viability, T/C [35]: 11.2%
- viability, T/C [36]: 10.2%

SMILES: O=C(Nc1ccc(O)c(NS(=O)(=O)c2ccc(F)cc2)c1)c1ccc(-c2ccccc2)cc1 + Nc1ccc(C#CCN(C(=O)Cc2ncc(C(F)(F)F)cc2C(F)(F)F)c2ccc(F)cc2)nn1
- IC50 (second compound 0.0316 µM): > 10000 nM
- IC50 (second compound 0.1 µM): > 10000 nM
- IC50 (second compound 0.316 µM): > 10000 nM
- IC50 (second compound 1 µM): > 10000 nM
- IC50 (second compound 3.16 µM): > 10000 nM
- IC50 (second compound 10 µM): > 10000 nM
- viability, T/C [1]: 109%
- viability, T/C [2]: 107%
- viability, T/C [3]: 108%
- viability, T/C [4]: 114%
- viability, T/C [5]: 108%
- viability, T/C [6]: 86.5%
- viability, T/C [7]: 101%
- viability, T/C [8]: 107%
- viability, T/C [9]: 110%
- viability, T/C [10]: 103%
- viability, T/C [11]: 103%
- viability, T/C [12]: 89.9%
- viability, T/C [13]: 105%
- viability, T/C [14]: 104%
- viability, T/C [15]: 109%
- viability, T/C [16]: 107%
- viability, T/C [17]: 110%
- viability, T/C [18]: 89.2%
- viability, T/C [19]: 110%
- viability, T/C [20]: 108%
- viability, T/C [21]: 111%
- viability, T/C [22]: 112%
- viability, T/C [23]: 109%
- viability, T/C [24]: 80.9%
- viability, T/C [25]: 107%
- viability, T/C [26]: 106%
- viability, T/C [27]: 106%
- viability, T/C [28]: 120%
- viability, T/C [29]: 123%
- viability, T/C [30]: 86.8%
- viability, T/C [31]: 123%
- viability, T/C [32]: 112%
- viability, T/C [33]: 112%
- viability, T/C [34]: 120%
- viability, T/C [35]: 109%
- viability, T/C [36]: 85.5%
